Like-named read-outs stand apart in the source and are kept apart here.
Experiment: In vivo pharmacokinetics in rat, oral and intravenous
Set-up: species or system Sprague-Dawley rats
Conditions: 1 mg/kg
Procedure: Absorption and metabolic stability were studied using an in vivo pharmacokinetics assay. Drug levels were assessed using ultra-performance LC/TOF-MS.
Three male Sprague-Dawley rats, 200-300 g, were dosed per route. […] Test compound was formulated in 50:50 tetraethylene glycol:PBS for both routes. Animals were given free access to food throughout the study. On the day prior to dosing, the carotid artery was cannulated for sample collection and for the intravenous study, the jugular vein was cannulated to enable dosing.
Blood samples were taken from the carotid artery at the following time points and placed in heparinised tubes:
Oral dosing—predose, 0.25, 0.5, 1, 2, 4, 8 and 24 hours post dose.
IV dosing—predose, 0.08, 0.25, 0.5, 1, 2, 4 and 8 hours post dose.
Blood samples were centrifuged to obtain plasma, which was transferred to a separate container and frozen at −20° C.
Samples were thawed at room temperature and prepared by protein precipitation with acetonitrile in the ratio 1:2 with plasma, followed by centrifugation for 10 minutes at 16,100×g (Eppendorf 5415D, Eppendorf AG, Hamburg, Germany). The supernatants were collected for analysis. The standard samples were prepared similarly, after spiking blank rat plasma samples to study compound concentrations at 1, 2, 5, 10, 20, 50, 100, 200, 500 and 1000 ng/mL. In addition, extra samples were prepared from 0-1 hour i.v. samples by diluting 1/20 with 50% aqueous acetonitrile to avoid exceeding the linear range of the analytical method.
A Waters Acquity liquid ultra-performance chromatographic system (Waters Corp., Milford, Mass., USA) with autosampler, vacuum degasser and column oven was used. The analytical column used for all compounds was a Waters BEH C18, (2.1×50 mm, 1.7 μm, Waters Corp, Milford, Mass., USA) together with a 0.2 μm on-line filter before the column. The eluents were 0.1% acetic acid (A, pH 3.2) and methanol (B). Gradient elution from 5% to 60% B in two minutes was employed, followed by one minute gradient to 90% B and column equilibration. The flow rate was 0.5 mL/min and the column oven temperature was 35° C. The flow was directed to the MS via Water Acquity photo-diode-array (PDA) detector. LC/TOF-MS data were recorded with a Micromass LCT Premier XE time-of-flight (TOF) mass spectrometer (Micromass Ltd., Manchester, England) equipped with a LockSpray electrospray ionization source. A positive ionization mode of electrospray was used for all compounds. The mass range of m/z 100-900 was acquired. The W-option of the reflector was used, and the DRE (dynamic range enhancement) option was set to on. The mass spectrometer and HPLC system were operated under Micromass MassLynx 4.1 software. Leucine enkephalin ([M+H]^+ m/z 556.2771) was used as a lock mass compound for accurate mass measurements and was delivered into the LockSpray probe with a syringe pump. MassLynx 4.1 software was used for controlling the instrumentation and for data processing.
The pharmacokinetic parameters for the test compounds were calculated by WinNonlin Pro (Pharsight Corp, CA) using standard noncompartmental methods. The elimination phase half-life (t1/2) was calculated by least-squares regression analysis of the terminal linear part of the log concentration−time curve. The area under the plasma concentration−time curve (AUC) was determined by use of the linear trapezoidal rule up to the last measurable concentration and thereafter by extrapolation of the terminal elimination phase to infinity. The tentative oral bioavailability (F) was calculated by dividing the AUC (0-24 hours) after p.o. administration by the AUC (0-8 hours) after i.v. administration, i.e., F=AUC(p.o.)/AUC(i.v), and reported as percentages (%).

AUC (i.v.): 11900 ng/mL/min
half-life (male, Sprague-Dawley, plasma, iv, i.v., read-out: T½ (converted)): 0.81 h
bioavailability (male, Sprague-Dawley, plasma, oral, read-out: Bioavailability F %): 38%
half-life (male, Sprague-Dawley, plasma, po, following oral administration, read-out: extended half life (converted)): 7.67 h
half-life (male, Sprague-Dawley, plasma, po, p.o., read-out: T½ (converted)): 3.17 h
AUC (p.o.): 1500 ng/mL/min
SMILES: CNC(CO)c1cccc(NS(=O)(=O)c2ccc(-c3ccc(F)cc3F)cc2)c1 (stereo not drawn) [ABD789, 2′,4′-Difluoro-N-(3-(2-hydroxy-1-(methylamino)ethyl)phenyl)biphenyl-4-sulfonamide]

Reference: patent US8207167B2, “Aryl-phenyl-sulfonamide-phenylene compounds and their use” (PIMCO 2664 Limited, priority 2008, dated 2012)
